Data from patent US20100243432A1, “HUMIDIFIER” (priority 2007, published 2010).

Test: solubility of AgCl calculated from solubility product
Assay type: physicochemical
Conditions: in water
Source text: As described above, it can be seen that when the silver ions are eluted through the electrolysis, the sterilization can be more efficiently conducted than when the silver ions are eluted through other methods.

[Cl][Ag] [AgCl, silver chloride]
dissolvable AgCl, as a concentration of the silver ions: approximately 1.5 mg/L
